Results on 28 compounds are retold here after US20180338964A1, “3-(PIPERIDIN-4-YL)-ISOXAZOL-3(OH)-ONES FOR TREATMENT OF DERMATOLOGIC DISORDERS” (Emeriti Pharma AB, priority 2014, published 2018).

By Kd is commonly meant a measure of binding affinity in units of concentration. The low end stands for higher affinity, the high end for lower affinity. The term IC50 denotes the concentration that gives 50% inhibition. For orientation: IC90 means the point of the concentration-response curve where the effect stands at 90%.

Series [1] has as its target T1, plasminogen kringle 1 (Homo sapiens, UniProt P00747).
T1 construct: Signal intensities from free tranexamic acid are reduced when recombinant kringle 1 protein is added
The experiment in a line: NMR competition assay (1D T1rho) for binding to plasminogen kringle 1, tranexamic acid as reference. The method, then:
The NMR experiment identifies compounds binding to the lysine binding pocket in a competition assay where tranexamic acid was used as reference compound and 1D T1rho experiments were used for detection. Signal intensities from free tranexamic acid are reduced when recombinant kringle 1 protein is added due to binding to this protein. The NMR signals from tranexamic acid regain intensity when an added compound displaces it from the lysine binding pocket of kringle 1.
The compounds were run one-by-one at a concentration between 15 and 300 μM. The concentration of protein and tranexamic acid were 10 and 100 μM respectively. A test compound resulting in at least 10% increase in tranexamic acid intensity (displacement) was considered binding to kringle 1.

In series [2] the test system is fibrinolysis in human plasma clot (tPA activation of plasminogen). The settings on record: citrated platelet poor human plasma, tPA 80 ng/ml, 37° C.; for IC50: read-out: IC50 (clot-lysis time prolonged to twice the vehicle value); for IC90: read-out: IC90 (clot-lysis time prolonged to nine times the vehicle value).
Series [3] relates to stratum corneum protease activity. The settings on record: ˜13% EACA (1 M) cream, rosacea patients; cited from earlier work.
The conditions of series [4]: treatment of bleeding disorders; cited from earlier work.
The conditions of series [5]: oral TXA; cited from earlier work.
The test system of series [6] is melasma. To be noted: cited from earlier work.
In series [7] the test system is stratum corneum barrier. The settings on record: topically applied, healthy volunteer, after experimental damage to stratum corneum; cited from earlier work.
The test system of series [8] is stratum corneum barrier function. To be noted: topical 3% (˜0.2M) TXA, rosacea patients; cited from earlier work.

T1 sequence (P00747 103-181 limits assumed): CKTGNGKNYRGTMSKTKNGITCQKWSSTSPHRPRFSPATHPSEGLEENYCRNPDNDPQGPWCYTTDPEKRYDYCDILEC

On to `O=c1cc([C@H]2CCN[C@@H](Cc3ccc(F)cc3F)C2)o[nH]1` [5-[(2R,4S)-2-[(2,4-difluorophenyl)methyl]piperidin-4-yl]-2,3-dihydro-1,2-oxazol-3-one], for which the Kd in series [1] is 100 nM.

Regarding `O=c1cc([C@H]2CCN[C@@H](CN3CCn4c(nnc4C(F)(F)F)C3)C2)o[nH]1` [5-[(2R,4S)-2-{[3-(trifluoromethyl)-5H,6H,7H,8H-[1,2,4]triazolo[4,3-a]pyrazin-7-yl]methyl}piperidin-4-yl]-2,3-dihydro-1,2-oxazol-3-one], the Kd in series [1] was determined as 240 nM.

Compound `CS(=O)(=O)c1ccc([C@H]2C[C@@H](c3cc(=O)[nH]o3)CCN2)cc1` [5-[(2R,4S)-2-(4-methanesulfonylphenyl)piperidin-4-yl]-2,3-dihydro-1,2-oxazol-3-one] yielded a Kd in series [1] of 200 nM.

Compound `O=c1cc([C@H]2CCN[C@@H](Cc3ccc(C(F)(F)F)c(F)c3)C2)o[nH]1` [5-[(2R,4S)-2-{[3-fluoro-4-(trifluoromethyl)phenyl]methyl}piperidin-4-yl]-2,3-dihydro-1,2-oxazol-3-one] registered a Kd in series [1] of 240 nM.

In turn, `O=c1cc([C@H]2CCN[C@@H](COC3CCCCC3)C2)o[nH]1` [5-[(2R,4S)-2-[(cyclohexyloxy)methyl]piperidin-4-yl]-2,3-dihydro-1,2-oxazol-3-one] yielded a Kd in series [1] of 300 nM.

For `CC(C)(C)c1ccc(C[C@@H]2C[C@@H](c3cc(=O)[nH]o3)CCN2)cc1` [5-[(2S,4S)-2-[(4-tert-butylphenyl)methyl]piperidin-4-yl]-2,3-dihydro-1,2-oxazol-3-one], binding in series [1] was characterised by a dissociation constant (Kd) of 100 nM.

`Cc1cc(C(F)(F)F)ccc1[C@H]1C[C@@H](c2cc(=O)[nH]o2)CCN1` [5-[(2R,4S)-2-[2-methyl-4-(trifluoromethyl)phenyl]piperidin-4-yl]-2,3-dihydro-1,2-oxazol-3-one] came in with a Kd in series [1] of 300 nM.

Turning to `O=c1cc([C@H]2CCN[C@@H](c3ccc(C(F)(F)F)cc3)C2)o[nH]1` [5-[(2R,4S)-2-[4-(trifluoromethyl)phenyl]piperidin-4-yl]-2,3-dihydro-1,2-oxazol-3-one], binding in series [1] was characterised by a dissociation constant (Kd) of 100 nM.

As to `O=c1cc([C@H]2CCN[C@@H](c3ccc(F)cc3F)C2)o[nH]1` [5-[(2R,4S)-2-(2,4-difluorophenyl)piperidin-4-yl]-2,3-dihydro-1,2-oxazol-3-one], the affinity in series [1], expressed as Kd, was 200 nM. This Kd is about 2-fold higher than that of the compound before.

As for `CS(=O)(=O)c1ccc(C[C@H]2C[C@@H](c3cc(=O)[nH]o3)CCN2)cc1` [5-[(2R,4S)-2-[(4-methanesulfonylphenyl)methyl]piperidin-4-yl]-2,3-dihydro-1,2-oxazol-3-one], the Kd in series [1] was 400 nM.

In turn, `O=c1cc([C@H]2CCN[C@@H](c3ccc(C(F)(F)F)nc3)C2)o[nH]1` [5-[(2R,4S)-2-[6-(trifluoromethyl)pyridin-3-yl]piperidin-4-yl]-2,3-dihydro-1,2-oxazol-3-one] yielded a Kd in series [1] of 280 nM.

`O=c1cc([C@H]2CCN[C@@H](c3ccc(F)cc3)C2)o[nH]1` [5-[(2R,4S)-2-(4-fluorophenyl)piperidin-4-yl]-2,3-dihydro-1,2-oxazol-3-one] gave a Kd in series [1] of 600 nM. This Kd is about 2.1-fold higher than that of the compound before.

In series [1], `CC(C)(C)c1cccc([C@H]2C[C@@H](c3cc(=O)[nH]o3)CCN2)c1` [5-[(2R,4S)-2-(3-tert-butylphenyl)piperidin-4-yl]-2,3-dihydro-1,2-oxazol-3-one] came in with a Kd of 280 nM.

Turning to `Cc1cc([C@H]2C[C@@H](c3cc(=O)[nH]o3)CCN2)ccc1C(F)(F)F` [5-[(2R,4S)-2-[3-methyl-4-(trifluoromethyl)phenyl]piperidin-4-yl]-2,3-dihydro-1,2-oxazol-3-one], the Kd in series [1] was determined as 100 nM.

As to `NCCCCCC(=O)O` [EACA, 6-aminohexanoic acid], in series [2], the IC50 stood at 72700 nM and the IC90 was 637000 nM. For the same compound, the “stratum corneum protease activity” value in series [3] was “reduction in stratum corneum protease activity”.

For `O=c1cc([C@H]2CCN[C@@H](c3ccc(C(F)(F)F)c(F)c3)C2)o[nH]1` [5-[(2R,4S)-2-[3-fluoro-4-(trifluoromethyl)phenyl]piperidin-4-yl]-2,3-dihydro-1,2-oxazol-3-one], in series [1], the Kd came to 200 nM.

`Cn1nnc([C@H]2C[C@@H](c3cc(=O)[nH]o3)CCN2)n1` [5-[(2R,4S)-2-(2-methyl-2H-1,2,3,4-tetrazol-5-yl)piperidin-4-yl]-2,3-dihydro-1,2-oxazol-3-one] displayed a Kd in series [1] of 200 nM. This counts as sub-micromolar.

On to `O=c1cc([C@H]2CCN[C@@H](Cc3cc(F)c(F)c(F)c3)C2)o[nH]1` [5-[(2R,4S)-2-[(3,4,5-trifluorophenyl)methyl]piperidin-4-yl]-2,3-dihydro-1,2-oxazol-3-one], for which binding in series [1] was characterised by a dissociation constant (Kd) of 140 nM. The Kd values of the last two compounds are within 1.5-fold of each other.

In series [1], `O=c1cc([C@H]2CCN[C@@H](c3ccc(C(F)(F)F)cc3F)C2)o[nH]1` [5-[(2R,4S)-2-[2-fluoro-4-(trifluoromethyl)phenyl]piperidin-4-yl]-2,3-dihydro-1,2-oxazol-3-one] had a Kd of 300 nM. Compared with the last compound, the Kd is about 2.1-fold higher.

As to `O=c1cc([C@H]2CCN[C@@H](c3cc(F)c(F)cc3F)C2)o[nH]1` [5-[(2R,4S)-2-(2,4,5-trifluorophenyl)piperidin-4-yl]-2,3-dihydro-1,2-oxazol-3-one], the Kd in series [1] is 300 nM.

With `NCC1CCC(C(=O)O)CC1` (stereo not shown) [TXA, 4-(aminomethyl)cyclohexane-1-carboxylic acid], in series [2], the IC50 turned out to be 6660 nM and the IC90 came out at 55400 nM. Moreover, in series [4], the therapeutic plasma concentration was 30 to 90 µM. Moreover, the “allergic skin reaction, fraction of treated” value in series [5] was < 1/100. Moreover, the effect on melasma result in series [6] (topical 5% (˜0.3M) TXA versus vehicle) was “no effect”. For the same compound, the erythema result in series [6] (topical 5% (˜0.3M) TXA) is on record as “produced erythema”. Also, the “stratum corneum barrier recovery” value in series [7] is reported as “enhance stratum corneum barrier recovery”. Further, the “stratum corneum barrier function” value in series [8] is “improved stratum corneum barrier function”.

Regarding `O=c1cc([C@H]2CCN[C@@H](Cc3ccc(F)c(F)c3)C2)o[nH]1` [5-[(2R,4S)-2-[(3,4-difluorophenyl)methyl]piperidin-4-yl]-2,3-dihydro-1,2-oxazol-3-one], the Kd in series [1] was 100 nM.

Consider `O=c1cc([C@H]2CCN[C@@H](c3ccc(OC(F)(F)F)cc3F)C2)o[nH]1` [5-[(2R,4S)-2-[2-fluoro-4-(trifluoromethoxy)phenyl]piperidin-4-yl]-2,3-dihydro-1,2-oxazol-3-one], for which, in series [1], the Kd worked out at 300 nM. Against the preceding compound, the Kd is about 3-fold higher.

In the case of `CC(C)(C)c1cc(C[C@H]2C[C@@H](c3cc(=O)[nH]o3)CCN2)cc(C(C)(C)C)c1` [5-[(2R,4S)-2-[(3,5-di-tert-butylphenyl)methyl]piperidin-4-yl]-2,3-dihydro-1,2-oxazol-3-one], the Kd in series [1] came to 1000 nM.

Consider `O=c1cc([C@H]2CCN[C@@H](c3ccc(Cl)cc3)C2)o[nH]1` [5-[(2R,4S)-2-(4-chlorophenyl)piperidin-4-yl]-2,3-dihydro-1,2-oxazol-3-one], for which binding in series [1] was put at a Kd of 100 nM.

`O=c1cc([C@H]2CCN[C@@H](CN3CCC[C@H]3C(F)(F)F)C2)o[nH]1` [5-[(2R,4S)-2-{[(2S)-2-(trifluoromethyl)pyrrolidin-1-yl]methyl}piperidin-4-yl]-2,3-dihydro-1,2-oxazol-3-one] displayed a Kd in series [1] of 400 nM.

Consider `O=c1cc([C@H]2CCN[C@@H](c3ccc(Cl)cc3Cl)C2)o[nH]1` [5-[(2R,4S)-2-(2,4-dichlorophenyl)piperidin-4-yl]-2,3-dihydro-1,2-oxazol-3-one], for which the equilibrium dissociation constant (Kd) in series [1] was found to be 200 nM.

`CC(C)(C)c1ccc(C[C@H]2C[C@@H](c3cc(=O)[nH]o3)CCN2)cc1` [5-[(2R,4S)-2-[(4-tert-butylphenyl)methyl]piperidin-4-yl]-2,3-dihydro-1,2-oxazol-3-one] yielded a Kd in series [1] of 300 nM.
